Test systems include SF-539; SNB-19; SN12C; UO-31; OVCAR-5; MDA-MB-435; HT-29; TK-10; NCI-H522; OVCAR-8; Hs-578T; A498; KM12; SK-OV-3; SNB-75; MOLT-4; M14; NCI/ADR-RES; K562; MCF7.
Experiment in all cases: NCI-60 cell line screen, 48 h

SMILES strings stand for the structures.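 Cultured in 96-well plates, cells were exposed to test compound for 48 hours across five concentrations. GI50 marks 50% less growth.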 Active and inactive are the calls of the source. Rule as the data show it: active = GI50 up to about 1.1 µM and inactive = higher. Some results are limits rather than exact numbers.

In the case of `CCCCCCCCCCCC[C@@H](O)[C@H]1CCC([C@H](O)CCCCC(=O)CCCCCCCC2=C[C@H](C)OC2=O)O1` (stereo not given in full), the GI50 was > 50 µM (inactive) with SF-539; > 28.2 µM (inactive) in the assay with SNB-19; > 39 µM (inactive) in the assay on SN12C; 7.16 µM (inactive) in the assay on UO-31; > 50 µM (inactive) in the assay on OVCAR-5; > 21.3 µM (inactive) in the assay with MDA-MB-435. The GI50 with HT-29 was 14.6 µM (inactive); in the assay on TK-10, > 50 µM (inactive); in the assay with NCI-H522, 15.4 µM (inactive); with OVCAR-8 it was 28.5 µM (inactive); in the assay with Hs-578T it was 11.3 µM (inactive); with A498 it was 26.2 µM (inactive). Further, the GI50 in the assay on KM12 is 13.1 µM (inactive); in the assay on SK-OV-3, > 50 µM (inactive); in the assay on SNB-75, > 37.9 µM (inactive); with MOLT-4 it was 2.62 µM (inactive); in the assay on M14, 15 µM (inactive); in the assay on NCI/ADR-RES it was 12.6 µM (inactive). In addition, the figures for the GI50 with K562 and in the assay on MCF7 were 2.98 µM (inactive) and 2.45 µM (inactive), respectively.
As to `CN(C)N1C(=O)CC2(CCN(CCCC(=O)c3ccc(F)cc3)CC2)C1=O`, the GI50 in the assay on SF-539, in the assay on SNB-19, in the assay with SN12C, in the assay on UO-31, in the assay on OVCAR-5 and in the assay on MDA-MB-435 was > 100 µM (inactive) each time. The GI50 in the assay with HT-29, in the assay on TK-10, in the assay on NCI-H522, with OVCAR-8, in the assay with Hs-578T and with A498 was > 100 µM (inactive) in each case. The GI50 with KM12, with SK-OV-3, in the assay on SNB-75, in the assay with MOLT-4, with M14 and with NCI/ADR-RES was > 100 µM (inactive) in each case. The GI50 in the assay on K562 and with MCF7 was > 100 µM (inactive) in each case.
In the case of `C1=N\CCOCC/N=C/c2ccccc2OCc2cccc(n2)COc2ccccc2/1`, the GI50 was 3.2 µM (inactive) with SF-539; 9.51 µM (inactive) in the assay on SNB-19; 5.96 µM (inactive) in the assay on SN12C; 7.98 µM (inactive) in the assay with UO-31; 5.26 µM (inactive) with OVCAR-5; 0.778 µM (active) with MDA-MB-435. Also, the GI50 was 5.22 µM (inactive) in the assay on HT-29; 6.27 µM (inactive) with TK-10; 20.3 µM (inactive) with NCI-H522; 6.38 µM (inactive) in the assay on OVCAR-8; 6.82 µM (inactive) with Hs-578T; > 25 µM (inactive) in the assay with A498. The GI50 in the assay with KM12 was 7.85 µM (inactive); in the assay with SK-OV-3, 11.2 µM (inactive); in the assay on SNB-75, 2.83 µM (inactive); in the assay on MOLT-4, 4.91 µM (inactive); in the assay with M14 it was 8.87 µM (inactive); with NCI/ADR-RES, 3.39 µM (inactive). The GI50 is 2.38 µM (inactive) with K562 and 4.32 µM (inactive) in the assay with MCF7.
Turning to `CO[C@H]1[C@@H](O)[C@@H](C)O[C@@H](O[C@H]2CC[C@@]3(C)[C@H](CC[C@@H]4[C@@H]3CC[C@]3(C)[C@@H](C5=CC(=O)OC5)[C@@H](OC(C)=O)C[C@]43O)C2)[C@@H]1O` [NERITALOSIDE], the GI50 with SF-539 is 0.0248 µM (active); with SNB-19, 0.144 µM (active); with SN12C it was 0.0152 µM (active); with UO-31 it was 0.0177 µM (active); with OVCAR-5, 0.0914 µM (active); in the assay on MDA-MB-435 it was 0.124 µM (active). Also, the GI50 in the assay on HT-29 is 0.0461 µM (active); in the assay on TK-10, 0.0164 µM (active); in the assay on NCI-H522, 0.0142 µM (active); with OVCAR-8 it was 0.0723 µM (active); in the assay on Hs-578T it was 0.0202 µM (active); in the assay on A498 it was 0.281 µM (active). In addition, the GI50 is 0.157 µM (active) with KM12; 0.0807 µM (active) in the assay with SK-OV-3; 0.112 µM (active) with SNB-75; 0.0211 µM (active) with MOLT-4; 0.0904 µM (active) with M14; 0.0486 µM (active) in the assay with NCI/ADR-RES. In addition, the GI50 was 0.141 µM (active) in the assay with K562 and 0.16 µM (active) with MCF7.
With `COc1c(O)ccc(C2=Cc3ccc(O)cc3OC2)c1OC`, the GI50 is 16.3 µM (inactive) in the assay with SF-539; 55.3 µM (inactive) in the assay with SNB-19; 23 µM (inactive) with SN12C; 11.6 µM (inactive) in the assay with UO-31; 30.1 µM (inactive) with OVCAR-5; 7.64 µM (inactive) in the assay with MDA-MB-435. The GI50 in the assay with HT-29 was 30.4 µM (inactive); in the assay with TK-10, 55.2 µM (inactive); with NCI-H522 it was 2.34 µM (inactive); in the assay on OVCAR-8, 18 µM (inactive); in the assay with Hs-578T, 19.5 µM (inactive); in the assay on A498 it was 27.9 µM (inactive). In addition, the GI50 in the assay with KM12 is 7.33 µM (inactive); in the assay on SK-OV-3, 24 µM (inactive); in the assay on SNB-75 it was 14.9 µM (inactive); in the assay on MOLT-4 it was 6.82 µM (inactive); with M14, 21 µM (inactive); in the assay on NCI/ADR-RES it was 14.5 µM (inactive). The GI50 in the assay with K562 is 7.08 µM (inactive); in the assay with MCF7 it was 32.4 µM (inactive).
For `O=C(O)C1=NN(c2ccc(S(=O)(=O)O)cc2)C2(C1)C(Cl)C(=O)N2c1nc2ccccc2s1` (stereo not given), the GI50 in the assay on SF-539 was 4.4 µM (inactive); with SNB-19, 21.3 µM (inactive); with SN12C, 17.8 µM (inactive); in the assay with UO-31, 8.3 µM (inactive); in the assay on OVCAR-5, 17.1 µM (inactive); in the assay with MDA-MB-435, 16.2 µM (inactive). The GI50 in the assay on HT-29 is 17.8 µM (inactive); in the assay on TK-10 it was 18 µM (inactive); with NCI-H522 it was 10.7 µM (inactive); with OVCAR-8, 17.6 µM (inactive); in the assay on Hs-578T, 47.6 µM (inactive); in the assay with A498 it was 19.1 µM (inactive). For the same compound, the GI50 in the assay on KM12 is 14.9 µM (inactive); in the assay on SK-OV-3, 15.6 µM (inactive); with SNB-75, 13.5 µM (inactive); in the assay on MOLT-4, 15.3 µM (inactive); in the assay with M14 it was 15.7 µM (inactive); with NCI/ADR-RES it was 23.9 µM (inactive). The values for the GI50 in the assay with K562 and in the assay with MCF7 were 22.1 µM (inactive) and 14.4 µM (inactive), respectively.
On to `O=C(O)c1ccc2c(c1)CC1(C2)Cc2cc3c(cc2C1=O)CCC3` (stereo not given), for which the GI50 in the assay with SF-539 was > 100 µM (inactive); in the assay on SNB-19, > 100 µM (inactive); with SN12C, > 100 µM (inactive); in the assay on UO-31, 85.1 µM (inactive); with OVCAR-5 it was > 100 µM (inactive); in the assay with MDA-MB-435, > 100 µM (inactive). Besides, the GI50 in the assay with HT-29 is > 100 µM (inactive); in the assay on TK-10, > 100 µM (inactive); in the assay with NCI-H522 it was > 100 µM (inactive); with OVCAR-8, 97.9 µM (inactive); in the assay on Hs-578T, > 100 µM (inactive); with A498, 19.5 µM (inactive). The GI50 was > 100 µM (inactive) with KM12; > 100 µM (inactive) with SK-OV-3; 56 µM (inactive) with SNB-75; > 100 µM (inactive) with MOLT-4; > 100 µM (inactive) in the assay with M14; > 100 µM (inactive) in the assay with NCI/ADR-RES. For the same compound, the GI50 in the assay with K562 and in the assay on MCF7 was > 100 µM (inactive) each time.
Take `NCCSCCC(=O)O`: the GI50 with SF-539 was 21.9 µM (inactive); in the assay on SNB-19, > 94.8 µM (inactive); with SN12C it was > 43.1 µM (inactive); in the assay with UO-31 it was > 100 µM (inactive); in the assay with OVCAR-5 it was > 100 µM (inactive); with MDA-MB-435 it was > 100 µM (inactive). The GI50 is > 84.1 µM (inactive) in the assay on HT-29; > 67.1 µM (inactive) in the assay on TK-10; > 66.1 µM (inactive) with NCI-H522; > 84.3 µM (inactive) in the assay with OVCAR-8; > 100 µM (inactive) in the assay with Hs-578T; > 68.7 µM (inactive) in the assay with A498. Besides, the GI50 is > 82.8 µM (inactive) in the assay with KM12; > 65.8 µM (inactive) in the assay with SK-OV-3; > 40.3 µM (inactive) in the assay on SNB-75; 29.7 µM (inactive) in the assay with MOLT-4; > 74.8 µM (inactive) in the assay on M14; > 69.8 µM (inactive) in the assay on NCI/ADR-RES. Also, the GI50 is 31.8 µM (inactive) in the assay with K562 and > 57.1 µM (inactive) in the assay with MCF7.
In the case of `O=C1c2ccccc2C(=O)[C@@]23O[C@@]12C1(Oc2cccc4cccc(c24)O1)[C@@H]1O[C@@H]1[C@@H]3O`, the GI50 was 2.64 µM (inactive) with SF-539; 13.3 µM (inactive) in the assay with SNB-19; 11.6 µM (inactive) in the assay on SN12C; 9.18 µM (inactive) in the assay with UO-31; 17.8 µM (inactive) in the assay on OVCAR-5; 17.2 µM (inactive) with MDA-MB-435. Further, the GI50 with HT-29 is 4.94 µM (inactive); in the assay on TK-10, 11.3 µM (inactive); in the assay on NCI-H522 it was 3.36 µM (inactive); in the assay on OVCAR-8, 4.71 µM (inactive); in the assay with Hs-578T, 14.9 µM (inactive); in the assay on A498 it was 26.9 µM (inactive). The GI50 in the assay on KM12 is 14 µM (inactive); in the assay on SK-OV-3, 15.1 µM (inactive); in the assay on SNB-75, 10.7 µM (inactive); with MOLT-4, 2.7 µM (inactive); in the assay on M14, 8.97 µM (inactive); in the assay with NCI/ADR-RES, 5.05 µM (inactive). For the same compound, the GI50 with K562 was 2.23 µM (inactive); with MCF7, 3.66 µM (inactive).
Consider `Cc1cccc(N2C(=O)C3ON(C(C(N)=O)c4ccccc4)C(c4c5ccccc5c(Cl)c5ccccc45)C3C2=O)c1C` (stereo not given), for which the GI50 in the assay with SF-539 is 7.67 µM (inactive); with SNB-19, 8.85 µM (inactive); in the assay on SN12C, 8.07 µM (inactive); in the assay with UO-31 it was 16.4 µM (inactive); in the assay with OVCAR-5 it was 10.3 µM (inactive); with MDA-MB-435, 6.31 µM (inactive). Further, the GI50 with HT-29 is 7.82 µM (inactive); in the assay on TK-10, 11.8 µM (inactive); in the assay with NCI-H522, 10.5 µM (inactive); in the assay on OVCAR-8 it was 9.84 µM (inactive); in the assay on Hs-578T, 16.6 µM (inactive); in the assay with A498, 11.9 µM (inactive). For the same compound, the GI50 in the assay on KM12 is 1.85 µM (inactive); in the assay with SK-OV-3 it was 18.8 µM (inactive); in the assay on SNB-75 it was 8.05 µM (inactive); in the assay on MOLT-4, 1.89 µM (inactive); with M14, 7.93 µM (inactive); in the assay on NCI/ADR-RES, 10.9 µM (inactive). Moreover, the GI50 was 12.7 µM (inactive) in the assay with K562 and 7.64 µM (inactive) in the assay with MCF7.

Source of the values: ChEMBL document CHEMBL1201862, “PubChem BioAssay data set” (2004).
